Results: article PMC10046369, “Low-Affinity/High-Selectivity Dopamine Transport Inhibition Sufficient to Rescue Cognitive Functions in the Aging Rat” (Biomolecules, 2023)

Experiments:
Assay in all cases: cell-based
Set-up in all cases: functional GPCR antagonist screen (Eurofins Cerep), percent inhibition of control agonist response
Settings in all cases: antagonist effect, against control agonist; read-out: % Inhibition of Control Agonist Response, Mean
[1] = target: T1, EP4 (h) (Homo sapiens, UniProt P35408)
T1 construct: gene PTGER4

[2] = target: T2, NOP (h) (ORL1) (Homo sapiens, UniProt P41146)
T2 construct: gene OPRL1
T2 sequence (P41146 whole entry): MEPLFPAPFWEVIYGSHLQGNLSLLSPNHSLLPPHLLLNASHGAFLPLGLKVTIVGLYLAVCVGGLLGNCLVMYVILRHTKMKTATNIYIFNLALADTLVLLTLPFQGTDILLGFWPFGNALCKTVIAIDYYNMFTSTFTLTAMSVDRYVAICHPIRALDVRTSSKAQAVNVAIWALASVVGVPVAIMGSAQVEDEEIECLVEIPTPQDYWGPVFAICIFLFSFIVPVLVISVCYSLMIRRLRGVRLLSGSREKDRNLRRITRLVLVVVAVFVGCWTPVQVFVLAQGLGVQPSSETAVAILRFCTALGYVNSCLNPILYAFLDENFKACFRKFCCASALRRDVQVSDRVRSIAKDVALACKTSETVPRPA

[3] = target: T3, MT2 (ML1B) (h) (Homo sapiens, UniProt P49286)
T3 construct: gene MTNR1B

[4] = target: T4, S1P4 (h) (Homo sapiens, UniProt O95977)
T4 construct: gene S1PR4

[5] = target: T5, MC5 (h) (Homo sapiens, UniProt P33032)
T5 construct: gene MC5R

[6] = target: T6, S1P1 (h) (Homo sapiens, UniProt P21453)
T6 construct: gene S1PR1
T6 sequence (P21453 whole entry): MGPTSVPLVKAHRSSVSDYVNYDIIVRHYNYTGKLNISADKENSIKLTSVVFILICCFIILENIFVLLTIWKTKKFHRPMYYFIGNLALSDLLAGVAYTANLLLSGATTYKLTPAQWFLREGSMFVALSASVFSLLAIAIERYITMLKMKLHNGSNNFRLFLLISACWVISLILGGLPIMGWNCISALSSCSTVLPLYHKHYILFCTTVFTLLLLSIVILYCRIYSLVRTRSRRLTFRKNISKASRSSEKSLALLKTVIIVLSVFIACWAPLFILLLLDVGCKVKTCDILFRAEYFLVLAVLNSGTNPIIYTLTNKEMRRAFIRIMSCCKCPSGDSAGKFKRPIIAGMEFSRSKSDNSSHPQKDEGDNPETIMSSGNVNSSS

[7] = target: T7, OX2 (h) (Homo sapiens, UniProt O43614)
T7 construct: gene HCRTR2
T7 sequence (O43614 whole entry): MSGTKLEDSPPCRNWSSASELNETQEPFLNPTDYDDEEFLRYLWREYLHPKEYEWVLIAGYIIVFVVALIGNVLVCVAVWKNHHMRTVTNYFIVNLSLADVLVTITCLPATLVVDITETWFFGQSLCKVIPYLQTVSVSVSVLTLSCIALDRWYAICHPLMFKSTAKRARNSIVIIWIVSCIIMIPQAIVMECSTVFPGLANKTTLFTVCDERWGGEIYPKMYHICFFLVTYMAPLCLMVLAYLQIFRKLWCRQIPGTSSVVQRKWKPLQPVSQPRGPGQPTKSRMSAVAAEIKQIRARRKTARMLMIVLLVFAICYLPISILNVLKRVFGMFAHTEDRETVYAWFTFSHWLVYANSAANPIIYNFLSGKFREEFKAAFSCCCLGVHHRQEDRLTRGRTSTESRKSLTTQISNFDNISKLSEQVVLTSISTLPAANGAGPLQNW

[8] = target: MRGX1 / MRGPRX1 (h) (Homo sapiens, UniProt Q96LB2)
Chain of MRGX1 / MRGPRX1 (h) (Q96LB2 whole entry): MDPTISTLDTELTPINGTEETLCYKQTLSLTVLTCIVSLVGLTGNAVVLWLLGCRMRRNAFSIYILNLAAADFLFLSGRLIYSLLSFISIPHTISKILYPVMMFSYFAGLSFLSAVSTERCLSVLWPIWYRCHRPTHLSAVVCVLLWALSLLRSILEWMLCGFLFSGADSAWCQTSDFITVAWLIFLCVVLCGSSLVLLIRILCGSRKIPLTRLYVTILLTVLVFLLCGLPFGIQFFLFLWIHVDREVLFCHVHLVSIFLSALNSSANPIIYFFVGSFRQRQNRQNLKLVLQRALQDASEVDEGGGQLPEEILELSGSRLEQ

[9] = target: T8, NK3 (h) (Homo sapiens, UniProt P29371)
T8 construct: gene TACR3
T8 sequence (P29371 whole entry): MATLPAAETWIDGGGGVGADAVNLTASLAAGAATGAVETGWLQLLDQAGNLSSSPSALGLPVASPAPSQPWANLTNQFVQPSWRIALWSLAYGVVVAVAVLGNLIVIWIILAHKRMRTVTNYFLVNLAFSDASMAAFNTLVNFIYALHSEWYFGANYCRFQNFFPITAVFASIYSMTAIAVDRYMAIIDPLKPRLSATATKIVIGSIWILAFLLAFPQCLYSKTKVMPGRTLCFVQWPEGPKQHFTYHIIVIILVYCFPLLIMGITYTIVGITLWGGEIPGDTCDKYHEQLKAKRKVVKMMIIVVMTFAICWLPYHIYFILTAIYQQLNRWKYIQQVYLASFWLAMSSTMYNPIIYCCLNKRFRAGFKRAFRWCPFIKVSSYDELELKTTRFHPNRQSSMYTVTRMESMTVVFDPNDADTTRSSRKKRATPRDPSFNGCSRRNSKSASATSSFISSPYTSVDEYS

[10] = target: T9, MCH2 (h) (Homo sapiens, UniProt Q969V1)
T9 construct: gene MCHR2

[11] = target: T10, NK1 (h) (Homo sapiens, UniProt P25103)
T10 construct: gene TACR1

[12] = target: T11, M1 (h) (Homo sapiens, UniProt P11229)
T11 construct: gene CHRM1

[13] = target: T12, PAF (h) (Homo sapiens, UniProt P25105)
T12 construct: gene PTAFR

[14] = target: T13, DP1 (h) (Homo sapiens, UniProt Q13258)
T13 construct: gene PTGDR
T13 sequence (Q13258 whole entry): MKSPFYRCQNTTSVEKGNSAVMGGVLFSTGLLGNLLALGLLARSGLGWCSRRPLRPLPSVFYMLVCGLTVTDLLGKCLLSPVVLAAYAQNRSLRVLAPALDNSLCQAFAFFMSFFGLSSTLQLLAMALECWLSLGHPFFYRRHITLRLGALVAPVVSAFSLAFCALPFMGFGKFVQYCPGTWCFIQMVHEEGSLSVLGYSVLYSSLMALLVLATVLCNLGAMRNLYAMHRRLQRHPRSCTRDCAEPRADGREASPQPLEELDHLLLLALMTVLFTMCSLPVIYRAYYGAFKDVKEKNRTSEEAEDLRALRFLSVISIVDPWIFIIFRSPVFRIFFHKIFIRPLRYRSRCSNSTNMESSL

[15] = target: T14, MC4 (h) (Homo sapiens, UniProt P32245)
T14 construct: gene MC4R

[16] = target: T15, MrgD (h) (Homo sapiens, UniProt Q8TDS7)
T15 construct: gene MRGPRD

[17] = target: T16, S1P3 (h) (Homo sapiens, UniProt Q99500)
T16 construct: gene S1PR3
T16 sequence (Q99500 whole entry): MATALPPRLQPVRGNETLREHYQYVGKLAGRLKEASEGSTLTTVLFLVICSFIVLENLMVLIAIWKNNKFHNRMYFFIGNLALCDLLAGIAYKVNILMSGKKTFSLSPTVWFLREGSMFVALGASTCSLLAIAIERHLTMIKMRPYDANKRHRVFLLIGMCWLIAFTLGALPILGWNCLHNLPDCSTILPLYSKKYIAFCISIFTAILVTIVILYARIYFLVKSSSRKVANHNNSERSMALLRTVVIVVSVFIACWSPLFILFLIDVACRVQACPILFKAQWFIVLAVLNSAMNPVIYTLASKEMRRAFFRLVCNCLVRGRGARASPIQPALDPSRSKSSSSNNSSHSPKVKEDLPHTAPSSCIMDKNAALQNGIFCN

[18] = target: T17, M2 (h) (Homo sapiens, UniProt P08172)
T17 construct: gene CHRM2
T17 sequence (P08172 whole entry): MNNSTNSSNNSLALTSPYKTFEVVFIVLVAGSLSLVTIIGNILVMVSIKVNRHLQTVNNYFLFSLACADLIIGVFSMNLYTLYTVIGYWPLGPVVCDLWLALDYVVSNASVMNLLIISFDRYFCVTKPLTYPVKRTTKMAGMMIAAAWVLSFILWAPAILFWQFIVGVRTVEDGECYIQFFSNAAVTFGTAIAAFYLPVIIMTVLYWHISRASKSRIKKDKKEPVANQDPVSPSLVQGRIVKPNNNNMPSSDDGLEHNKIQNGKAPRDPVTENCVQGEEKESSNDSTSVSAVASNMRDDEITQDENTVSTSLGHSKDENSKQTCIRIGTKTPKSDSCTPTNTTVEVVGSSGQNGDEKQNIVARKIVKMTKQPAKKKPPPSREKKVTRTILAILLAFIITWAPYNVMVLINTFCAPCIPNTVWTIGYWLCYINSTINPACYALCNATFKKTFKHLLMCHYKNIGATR

[19] = target: T18, LPA3 (h) (Homo sapiens, UniProt Q9UBY5)
T18 construct: gene LPAR3

[20] = target: T19, S1P2 (h) (Homo sapiens, UniProt O95136)
T19 construct: gene S1PR2

[21] = target: T20, δ (DOP) (h) (Homo sapiens, UniProt P41143)
T20 construct: gene OPRD1

[22] = target: T21, M3 (h) (Homo sapiens, UniProt P20309)
T21 construct: gene CHRM3
T21 sequence (P20309 whole entry): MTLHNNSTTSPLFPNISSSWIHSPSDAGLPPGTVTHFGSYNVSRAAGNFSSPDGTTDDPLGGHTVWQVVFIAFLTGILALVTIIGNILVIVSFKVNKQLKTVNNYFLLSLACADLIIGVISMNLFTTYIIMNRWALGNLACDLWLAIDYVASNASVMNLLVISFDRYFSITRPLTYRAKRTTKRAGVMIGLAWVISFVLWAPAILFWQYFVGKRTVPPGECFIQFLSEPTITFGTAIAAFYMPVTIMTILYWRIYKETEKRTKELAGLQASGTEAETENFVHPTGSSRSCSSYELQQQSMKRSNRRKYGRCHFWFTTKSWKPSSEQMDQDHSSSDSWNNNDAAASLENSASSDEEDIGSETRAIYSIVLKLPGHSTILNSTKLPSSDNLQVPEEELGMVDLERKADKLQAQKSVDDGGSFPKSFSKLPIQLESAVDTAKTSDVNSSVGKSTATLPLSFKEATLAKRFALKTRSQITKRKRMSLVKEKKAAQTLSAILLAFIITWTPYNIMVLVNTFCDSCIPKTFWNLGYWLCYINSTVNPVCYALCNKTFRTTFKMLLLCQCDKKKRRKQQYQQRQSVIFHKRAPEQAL

[23] = target: T22, IP (PGI2) (h) (Homo sapiens, UniProt P43119)
T22 construct: gene PTGIR
T22 sequence (P43119 whole entry): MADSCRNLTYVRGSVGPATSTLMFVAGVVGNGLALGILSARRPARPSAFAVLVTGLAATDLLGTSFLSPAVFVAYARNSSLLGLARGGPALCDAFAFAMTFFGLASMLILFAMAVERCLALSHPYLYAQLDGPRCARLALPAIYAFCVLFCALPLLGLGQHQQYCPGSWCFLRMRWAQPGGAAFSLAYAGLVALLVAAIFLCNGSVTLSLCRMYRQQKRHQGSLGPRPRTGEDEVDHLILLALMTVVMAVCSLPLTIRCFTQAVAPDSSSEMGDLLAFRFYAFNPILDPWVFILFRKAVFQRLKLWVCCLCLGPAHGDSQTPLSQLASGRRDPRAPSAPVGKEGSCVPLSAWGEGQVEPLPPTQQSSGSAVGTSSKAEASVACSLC

[24] = target: T23, LPA1(h) (Homo sapiens, UniProt Q92633)
T23 construct: gene LPAR1

[25] = target: T24, M4 (h) (Homo sapiens, UniProt P08173)
T24 construct: gene CHRM4
T24 sequence (P08173 whole entry): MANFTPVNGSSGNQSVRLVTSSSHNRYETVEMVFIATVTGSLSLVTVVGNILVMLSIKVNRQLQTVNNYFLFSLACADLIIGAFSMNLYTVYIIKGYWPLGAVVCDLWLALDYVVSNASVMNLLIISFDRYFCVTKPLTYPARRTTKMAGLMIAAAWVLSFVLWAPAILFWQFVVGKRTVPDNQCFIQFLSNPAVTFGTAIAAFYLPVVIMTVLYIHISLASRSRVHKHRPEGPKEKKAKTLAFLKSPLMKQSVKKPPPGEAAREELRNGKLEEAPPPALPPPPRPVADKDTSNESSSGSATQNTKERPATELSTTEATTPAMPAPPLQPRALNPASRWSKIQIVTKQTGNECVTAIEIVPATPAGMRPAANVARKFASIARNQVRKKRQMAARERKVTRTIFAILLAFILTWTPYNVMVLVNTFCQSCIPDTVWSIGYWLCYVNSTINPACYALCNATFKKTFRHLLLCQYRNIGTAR

## [O-][S@@+](Cc1cncs1)C(c1ccccc1)c1ccccc1 [S-CE-123, (S)-5-((Benzhydrylsulfinyl)Methyl)Thiazole]
[1]
  inhibition at 2.8 µM: -1.5%
[2]
  inhibition at 2.8 µM: 18.4%
[3]
  inhibition at 2.8 µM: 6.2%
[4]
  inhibition at 2.8 µM: -14.6%
[5]
  inhibition at 2.8 µM: -8.9%
[6]
  inhibition at 2.8 µM: 5.9%
[7]
  inhibition at 2.8 µM: 4.2%
[8]
  inhibition at 2.8 µM: 4.9%
[9]
  inhibition at 2.8 µM: -5.1%
[10]
  inhibition at 2.8 µM: 3.1%
[11]
  inhibition at 2.8 µM: -5.3%
[12]
  inhibition at 2.8 µM: 2.6%
[13]
  inhibition at 2.8 µM: -39.1%
[14]
  inhibition at 2.8 µM: -2.5%
[15]
  inhibition at 2.8 µM: 2.3%
[16]
  inhibition at 2.8 µM: 30%
[17]
  inhibition at 2.8 µM: 12.2%
[18]
  inhibition at 2.8 µM: -9.2%
[19]
  inhibition at 2.8 µM: -34.4%
[20]
  inhibition at 2.8 µM: -5.2%
[21]
  inhibition at 2.8 µM: -2.8%
[22]
  inhibition at 2.8 µM: 0.8%
[23]
  inhibition at 2.8 µM: 16.3%
[24]
  inhibition at 2.8 µM: 4.4%
[25]
  inhibition at 2.8 µM: -8.5%
